Experimental data: US8143428B2, “Heteroaryl sulfones and sulfonamides and therapeutic uses thereof” (Temple University-Of The Commonwealth System of Higher …, priority 2004, dated 2012)

Experiments:
Assay type in all cases: cell-based
[1] = tested on: non-small cell lung carcinoma (H157) cell line; assay: Growth of human tumor cells in culture, H157 (Trypan blue exclusion); conditions: viable cells by Trypan blue exclusion
Procedure: (§1) The effect of compounds according to Formula I on the growth of human tumor cells in culture was evaluated using androgen receptor negative prostate (DU145), colo-rectal (DLD-1), non-small cell lung carcinoma (H157), estrogen receptor negative breast (BT20) and chronic myeloid leukemia (K562) cell lines. All cell cultures were maintained at 37° C. in a humidified atmosphere of 5% CO2.
(§2) Cells were treated with compounds according to Formula I at five different concentrations (1-100 μM range) for each compound. The dose response of each cell line was established by determining the number of viable cells after 96 h of continuous treatment against each of the different test concentrations of each compound. The determination of viable cells was done by the by the Trypan blue exclusion method. Activity for each compound at each concentration is reported as a percentage of cells that remain viable.

[2] = tested on: chronic myeloid leukemia (K562) cell line; assay: Growth of human tumor cells in culture, K562 (Trypan blue exclusion); conditions: 96 h continuous treatment, viable cells by Trypan blue exclusion
Procedure: as §1, §2

JNK1 = target: T1, JNK1 (Homo sapiens, UniProt P45983); assay: Activation of Jun kinase: JNK1 immunoprecipitated from treated BT-20 cells, phosphorylation of GST-c-Jun; conditions: 50 and 100 μM in DMSO, 12 hours at 37° C., compared to DMSO controls
T1 construct: JNK1 in 100 μg of cell lysate was immunoprecipitated; endogenous in cells; host or cells: BT-20 cells
T1 sequence (P45983 whole entry): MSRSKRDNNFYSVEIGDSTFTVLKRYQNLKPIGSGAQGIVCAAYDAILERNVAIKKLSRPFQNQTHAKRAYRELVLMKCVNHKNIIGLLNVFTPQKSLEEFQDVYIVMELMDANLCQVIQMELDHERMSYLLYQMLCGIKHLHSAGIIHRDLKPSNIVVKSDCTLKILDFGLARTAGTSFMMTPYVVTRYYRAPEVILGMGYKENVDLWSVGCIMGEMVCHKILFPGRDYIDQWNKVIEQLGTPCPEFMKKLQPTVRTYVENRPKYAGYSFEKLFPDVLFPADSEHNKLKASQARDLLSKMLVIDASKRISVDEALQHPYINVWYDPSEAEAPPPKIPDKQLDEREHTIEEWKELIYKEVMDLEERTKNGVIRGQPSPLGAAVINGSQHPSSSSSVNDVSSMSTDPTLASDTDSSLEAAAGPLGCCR
Procedure: The compounds of Examples 1, 2, 7, 8 and 9 from Table 3 were analyzed for activation of the Jun kinase signaling pathway. The selected compounds were added to BT-20 cells at concentrations of 50 and 100 μM in dimethyl sulfoxide (DMSO) and incubated for 12 hours at 37° C. The cells were harvested and lysed after 12 hours of treatment. The cell lysates were then analyzed for c-Jun kinase activity by immunoprecipitating JNK1 and assessing the ability of these immunoprecipitates to phosphorylate GST-linked c-Jun. Lysis of the cells was performed after incubation with […], using the lysis buffer [25 mM N-2-hydroxyethylpiperazine-N′-2-ethanesulfonic acid (HEPES) (pH 7.6), 0.1% Triton, 300 mM NaCl, 20 mM β-glycerophosphate, 1.5 mM MgCl2, 0.2 mM ethylenediaminetetraacetic acid (EDTA), 0.5 mM dithiothreitol (DTT), 0.2 mM Na3VO4, 100 μM phenylmethylsulfonyl fluoride (PMSF), 1 mM benzamidine, 2 μg/mL leupeptin and 4 μg/mL aprotinin]. Protein concentrations were measured using Bio-Rad protein assay reagent. JNK1 in 100 μg of cell lysate was immunoprecipitated by incubating […] of lysate protein with […] of the JNK1 polyclonal antibody (Santa Cruz Biotechnology, Inc.,) for 1 h followed by an additional incubation with […] of protein A-Sepharose (Pharmacia) for 1 h. The immune complex bound protein A-Sepharose beads were washed twice with the lysis buffer and twice with JNK buffer (20 mM HEPES, pH 7.6, 20 mM β-glycerophosphate, 10 mM MgCl2 and […] Na3VO4. The kinase reaction was carried out by resuspending the complex bound protein A-Sepharose beads in […] of JNK buffer containing […] [γ-^32P]ATP (5000 CPM/pmol) and incubating them for 20 min at 30° C. using 5 mg GST-c-Jun as substrate. The reaction was terminated by the addition of Laemmli's buffer. The samples were then boiled for 3 min. The phosphorylated GST-c-Jun was then separated on 12% SDS-PAGE. Following the separation, the gel was dried, and an autoradiogram was developed which is reproduced in FIG. 1.

[3] = tested on: androgen receptor negative prostate (DU145) cell line; assay: Growth of human tumor cells in culture, DU145 (Trypan blue exclusion); conditions: 96 h continuous treatment, viable cells by Trypan blue exclusion
Procedure: as §1, §2

[4] = tested on: colo-rectal (DLD-1) cell line; assay: Growth of human tumor cells in culture, DLD-1 (Trypan blue exclusion); conditions: DLD-1 cells, 96 h continuous treatment, viable cells by Trypan blue exclusion
Procedure: as §1, §2

[5] = tested on: estrogen receptor negative breast (BT20) cell line; assay: Growth of human tumor cells in culture, BT20 (Trypan blue exclusion); conditions: 96 h continuous treatment, viable cells by Trypan blue exclusion
Procedure: as §1, §2

[6] = Homo sapiens, NCI-H157, 96 h continuous treatment

Row | GI50 [1, 6] [µM] | GI50 ([2]; Homo sapiens, K562, 96 h) [µM] | c-Jun kinase activity: phosphorylation of GST-c-Jun by immunoprecipitated JNK1 (autoradiogram, FIG. 1) (JNK1) | GI50 ([3]; Homo sapiens, DU-145, 96 h) [µM] | GI50 ([4]; Homo sapiens, DLD-1, 96 h) [µM] | GI50 ([5]; Homo sapiens, BT-20, 96 h) [µM] | GI50 ([1]; 96 h continuous treatment) [µM] | GI50 [2] [µM] | GI50 [3] [µM] | GI50 [4] [µM] | GI50 [5] [µM] | Compound
1 | 18 | 14 | hyperphosphorylated | 15 | 20 | 16 |  |  |  |  |  | COc1ccc(NS(=O)(=O)c2cc3cc(Br)ccc3oc2=O)cc1 [Example 1, 6-Bromo-N-(4-methoxyphenyl)-2-oxo-2H-chromene-3-sulfonamide]
2 | 28 | 23 | hyperphosphorylated | 22 | 32 | 27 |  |  |  |  |  | COc1ccc(NS(=O)(=O)c2cc3cc(Cl)ccc3oc2=O)cc1 [Example 2, 6-Chloro-N-(4-methoxyphenyl)-2-oxo-2H-chromene-3-sulfonamide]
3 |  |  |  |  |  |  | 74 | 48 | 57 | 78 | 52 | CCOc1cccc2cc(S(=O)(=O)Nc3ccc(OC)cc3)c(=O)oc12 [Example 3, 8-Ethoxy-N-(4-methoxyphenyl)-2-oxo-2H-chromene-3-sulfonamide]
4 | 76 | 51 |  | 42 | 82 | 65 |  |  |  |  |  | COc1ccc(NS(=O)(=O)c2cc3cc(Cl)ccc3oc2=O)cc1O [Example 4, 6-Chloro-N-(3-hydroxy-4-methoxyphenyl)-2-oxo-2H-chromene-3-sulfonamide]
5 | 72 | 42 |  | 48 | 80 | 54 |  |  |  |  |  | CCOc1cccc2cc(S(=O)(=O)Nc3ccc(F)c(N)c3)c(=O)oc12 [Example 5, N-(3-Amino-4-fluorophenyl)-8-ethoxy-2-oxo-2H-chromene-3-sulfonamide]
6 | 78 | 44 |  | 56 | 92 | 68 |  |  |  |  |  | COc1ccc2oc(=O)c(S(=O)(=O)Nc3ccc(F)c(N)c3)cc2c1 [Example 6, N-(3-Amino-4-fluorophenyl)-6-methoxy-2-oxo-2H-chromene-3-sulfonamide]
7 | 32 | 27 | hyperphosphorylated | 25 | 38 | 18 |  |  |  |  |  | COc1ccc2oc(=O)c(S(=O)(=O)Nc3ccc(Br)cc3)cc2c1 [Example 7, N-(4-Bromophenyl)-6-methoxy-2-oxo-2H-chromene-3-sulfonamide]
8 | 74 | 58 | hyperphosphorylated | 52 | 85 | 64 |  |  |  |  |  | CCOc1cccc2cc(S(=O)(=O)Nc3ccc(OC)cc3)c(=O)oc12 [Example 8, 8-Ethoxy-N-(4-methoxyphenyl)-2-oxo-2H-chromene-3-sulfonamide]
9 | 16 | 11 | hyperphosphorylated | 14 | 18 | 17 |  |  |  |  |  | O=c1oc2c(Cl)cccc2cc1S(=O)(=O)Nc1ccc(Br)cc1 [Example 9, N-(4-Bromophenyl)-8-chloro-2-oxo-2H-chromene-3-sulfonamide]
10 | 15 | 16 |  | 12 | 14 | 12 |  |  |  |  |  | O=c1oc2c(Br)cccc2cc1S(=O)(=O)Nc1ccc(Br)cc1 [Example 10, N-(4-Bromophenyl)-8-bromo-2-oxo-2H-chromene-3-sulfonamide]
